According to US11377425B1, “Small molecule modulators of IL-17” (LEO Pharma A/S, priority 2018, dated 2022):
pEC50: −log10 of the molar value.

Columns and labels:
[1] = In vivo dosing of compounds in mouse (pharmacokinetics, PO and i.v.); conditions: female, Balb/C, whole blood, oral dose of Example 32 50 mg/kg
Procedure: Example 140. In Vivo Dosing of Compounds in Mouse
Mouse pharmacokinetics of Examples 32 and 135 were studied in female Balb/C mice. Animals were not fasted prior to the study and had access to water and certified rodent diet ad libitum during the study. The mice were weighed on the day of the study and the individual dose volumes were adjusted on a per kg body weight basis.
Oral dosing. The mice were dosed by oral gavage. Example 135 was dosed as a suspension in 1% methyl cellulose solution (10 mL/kg). Example 32 was dosed as a suspension in a formulation containing Betadex sulfobutyl ether sodium/PVP (polyvinyl pyrrolidone)/0.1% Citrate buffer pH 3 (20:5:75) (10 mL/kg).
Intravenous dosing. The mice were dosed i.v. via the tail vein. The dose volume was 2 mL/kg of a solution of Example 32 (0.2 mg/mL) in DMSO/ethanol/water/propylene glycol (PG) (2:8:50:40).
Study samples. Blood was collected (exactly 20 μL per time point) from the saphenous vein of each animal into K2EDTA-coated capillaries. […] The compounds were quantified in blood by means of LC-MS/MS.
Standard PK parameters were calculated using non-compartmental analysis in Phoenix WinNonLin 6.4 (Certara, Princeton, N.J.)
(§1) The bioavailabilty (F) was calculated using the equation below, where AUC is the area under the curve for the oral and i.v. dosing routes and D is the dose given i.v. or orally. […]

human IL-17AA = target: T1, human IL-17AA (Homo sapiens, UniProt Q16552); assay: IL-8 release assay in human epithelial keratinocytes adult (HEKa); type: cell-based; conditions: HEKa cells, 3 ng/mL HEK-human IL-17AA + 10 ng/mL human TNFalpha; read-out: Rel EC50 IL-8 release assay
T1 construct: host or cells: HEK (human embryonic kidney) cells
T1 sequence (Q16552 24-155): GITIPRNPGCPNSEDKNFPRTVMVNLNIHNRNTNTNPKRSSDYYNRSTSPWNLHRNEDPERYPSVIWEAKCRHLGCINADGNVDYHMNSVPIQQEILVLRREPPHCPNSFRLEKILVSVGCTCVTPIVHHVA
Method in brief: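 Adult human epidermal keratinocytes stimulated 68-72 h at 37 °C with 3 ng/mL HEK-derived human IL-17AA plus 10 ng/mL TNF-alpha (final) in the presence of compound; TNF-alpha alone defines 100% inhibition. Secreted IL-8 measured by HTRF as percent of controls; relative IC50/Emax from four-parameter fit (r^2>0.9), cytotoxicity by PrestoBlue.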

[2] = In vivo dosing of compounds in dog (pharmacokinetics, PO and i.v.); design: species or system dog (male Beagles); conditions: male, Beagle, whole blood, oral dose of Example 32 1 mg/kg
Procedure: Example 139. In Vivo Dosing of Compounds in Dog
Dog pharmacokinetics (PK) of Examples 32 and 135 were studied in male Beagles. On the day of dosing, the animals were fasted overnight. They had free access to drinking water, except in immediate connection with dosing, and were allowed to eat from 4 hrs after dosing and onwards. The dogs were weighed on the morning prior to dosing and the individual dose volumes were adjusted on a per kg body weight basis.
Oral dosing. The dogs were dosed PO by oral gavage. The test compounds were dosed as suspensions in 1% methyl cellulose solution (2.5 mL/kg). The stomach tube was then flushed with at least 15 mL water post-dose to ensure that all test formulation entered the stomach.
Intravenous dosing. The dogs were dosed i.v. via an in-dwelling catheter in venae cephalica. The dose volume was 1 mL/kg of a solution of Example 32 (0.3 mg/mL) in HPB (hydroxypropyl beta cyclodextrin)/PEG-4 (polyethylene glycol-4)/water (20:20:60). […]
Study samples. […] The compounds were quantified in blood by means of LC-MS/MS.
Standard PK parameters were calculated using non-compartmental analysis and Phoenix WinNonLin 6.4 (Certara, Princeton, N.J.).
as §1

SMILES	bioavailability [1] [%]	pEC50 (human IL-17AA)	bioavailability [2] [%]
Cc1n[nH]c(C)c1-c1ccc(NC(=O)[C@@H](NC(=O)N2CCCC2)C2CCCCC2)cc1 [Example 477, N-[(1S)-1-cyclohexyl-2-[4-(3,5-dimethyl-1H-pyrazol-4-yl)anilino]-2-oxo-ethyl]pyrrolidine-1-carboxamide]		< 6.00	
Cc1n[nH]c(C)c1-c1ccc(NC(=O)[C@@H](NC(=O)N2CCOCC2)C2CCCCC2)cc1 [Example 478, N-[(1S)-1-cyclohexyl-2-[4-(3,5-dimethyl-1H-pyrazol-4-yl)anilino]-2-oxo-ethyl]morpholine-4-carboxamide]		< 6.00	
Cc1n[nH]c(C)c1-c1ccc(NC(=O)[C@@H](NC(=O)O[C@H](C)CC[C@@H](C)O)C(C2CC2)C2CC2)cc1 [Example 480, [(1R,4R)-4-hydroxy-1-methyl-pentyl] N-[(1S)-1-(dicyclopropylmethyl)-2-[4-(3,5-dimethyl-1H-pyrazol-4-yl)anilino]-2-oxo-ethyl]carbamate]		6.00 to 7.00	
Cc1n[nH]c(C)c1-c1ccc(NC(=O)[C@@H](NC(=O)O[C@@H](C)CC[C@H](C)O)C(C2CC2)C2CC2)cc1 [Example 481, [(1S,4S)-4-hydroxy-1-methyl-pentyl] N-[(1S)-1-(dicyclopropylmethyl)-2-[4-(3,5-dimethyl-1H-pyrazol-4-yl)anilino]-2-oxo-ethyl]carbamate]		< 6.00	

Next, values leading:

bioavailability [1] [%]	pEC50 (human IL-17AA)	bioavailability [2] [%]	SMILES
26	> 7.00	23	Cc1n[nH]c(C)c1-c1ccc(NC(=O)[C@@H](NC(=O)c2ccnn2C(C)C)C(C2CC2)C2CC2)cc1 (single isomer, unassigned) [Example 32]
	6.00 to 7.00		Cc1n[nH]c(C)c1-c1ccc(NC(=O)[C@@H](NC(=O)OCCCCO)C(C2CC2)C2CC2)cc1 [Example 479, 4-hydroxy butyl N-[(1S)-1-(dicyclopropylmethyl)-2-[4-(3,5-dimethyl-1H-pyrazol-4-yl)anilino]-2-oxo-ethyl]carbamate]
	> 7.00		Cc1nn(COP(=O)(O)O)c(C)c1-c1ccc(NC(=O)[C@@H](NC(=O)c2ccnn2[C@@H](C)CO)C(C2CC2)C2CC2)cc1 [Example 483, Disodium [4-[4-[[(2S)-3,3-dicyclopropyl-2-[[2-[(1S)-2-hydroxy-1-methyl-ethyl]pyrazole-3-carbonyl]amino]propanoyl]amino]phenyl]-3,5-dimethyl-pyrazol-1-yl]methyl phosphate]
